The supplement of paper PMC10307832

Legend:
Assay in all cases: relative viability (nuclei count vs DMSO), 5 days (fraction); higher = more cells survive
Veliparib + OSI-027 = compound: C[C@]1(c2nc3c(C(N)=O)cccc3[nH]2)CCCN1 [Veliparib] + COc1cccc2cc(-c3nc([C@H]4CC[C@H](C(=O)O)CC4)n4ncnc(N)c34)[nH]c12 [OSI-027] (partner 0.5 µM)
Procedure, shortened: (§1)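 Relative viability equals treated-well nuclei counts divided by vehicle-well nuclei counts. Counts came from 4× images of lung cancer cell lines grown in 1536-well plates for 5 days after pin-tool dosing on the day after seeding. Dosing used one drug alone or a fixed anchor-drug dose plus five library-drug doses (not always all listed) in √10 steps, and values are medians of duplicate plates.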

Veliparib + Olaparib = compound: C[C@]1(c2nc3c(C(N)=O)cccc3[nH]2)CCCN1 [Veliparib] + O=C(c1cc(Cc2n[nH]c(=O)c3ccccc23)ccc1F)N1CCN(C(=O)C2CC2)CC1 [Olaparib] (partner 8 µM)
Procedure, shortened: as §1

Veliparib + Decitabine = compound: C[C@]1(c2nc3c(C(N)=O)cccc3[nH]2)CCCN1 [Veliparib] + Nc1ncn([C@H]2C[C@H](O)[C@@H](CO)O2)c(=O)n1 [Decitabine] (partner 2 µM)
Procedure, shortened: as §1

[1] = compound: COC1=CC=C(C=C1)CN2C=CC3=C2C=C(C=C3)C(=O)NO + Nc1nc2[nH]cc(CCc3ccc(C(=O)N[C@@H](CCC(=O)O)C(=O)O)cc3)c2c(=O)[nH]1 [Pemetrexed] (partner 0.2 µM)
Procedure, shortened: as §1

Cell Line	relative viability (Veliparib + OSI-027; first compound 0.02 µM)	relative viability (Veliparib + OSI-027; first compound 0.06325 µM)	relative viability (Veliparib + OSI-027; first compound 0.2 µM)	relative viability (Veliparib + OSI-027; first compound 0.6325 µM)	relative viability (Veliparib + OSI-027; first compound 2 µM)	relative viability (Veliparib + Olaparib; first compound 0.02 µM)	relative viability (Veliparib + Olaparib; first compound 0.06325 µM)	relative viability (Veliparib + Olaparib; first compound 0.2 µM)	relative viability (Veliparib + Olaparib; first compound 0.6325 µM)	relative viability (Veliparib + Olaparib; first compound 2 µM)	relative viability (Veliparib + Decitabine; first compound 0.02 µM)	relative viability (Veliparib + Decitabine; first compound 0.06325 µM)	relative viability (Veliparib + Decitabine; first compound 0.2 µM)	relative viability (Veliparib + Decitabine; first compound 0.6325 µM)	relative viability (Veliparib + Decitabine; first compound 2 µM)	relative viability ([1]; first compound 0.08 µM)	relative viability ([1]; first compound 0.253 µM)	relative viability ([1]; first compound 0.8 µM)	relative viability ([1]; first compound 2.53 µM)	relative viability ([1]; first compound 8 µM)
NCI-H838	0.419	0.328	0.409	0.296	0.372	0.852	0.729	0.802	0.702	0.764	0.409	0.453	0.408	0.32	0.426	0.232	0.27	0.244	0.234	0.257
EPLC-272H	0.227	0.273	0.265	0.26	0.344		0.764	1.05	0.733	0.715		0.312	0.387	0.331	0.393		0.342	0.317	0.271	0.322
NCI-H23	0.652	0.393	0.587	0.518	0.737	0.34	0.338	0.345	0.355	0.314	0.318	0.289	0.306	0.296	0.334	0.514	0.625	0.714	0.709	0.668
EMC-BAC-2	0.346	0.318	0.379	0.349	0.345	0.539	0.427	0.483	0.455	0.495	0.997		0.936	0.874	0.984	0.428		0.451	0.476	0.491
NCI-H2405	0.547	0.595	0.619	0.654	0.365	0.927		0.888	0.872	0.939	0.742		0.653	0.663	0.693	0.979		1.02	1.03	0.948
NCI-H661	0.751	0.704	0.743	0.669	0.657	0.749	0.824	0.712	0.692	0.741	0.555	0.545	0.481	0.424	0.443		0.889	0.836	0.957	0.954
NCI-H650	0.436	0.415	0.543	0.48	0.55	0.355	0.329	0.383	0.431	0.378	0.309	0.283	0.265	0.278	0.317	0.864	1.03	0.89	0.892	0.888
HCC-15		0.641	0.7	0.619	0.603	0.756	0.649	0.726	0.686	0.706	0.572	0.56	0.589	0.562	0.502	0.203	0.237	0.243	0.234	0.217
PC-14	0.292	0.774	0.82	0.743	0.866	0.342	0.326	0.368	0.38	0.204	0.155	0.141	0.135	0.12	0.109	0.107	0.132	0.14	0.135	0.152
NCI-H1944	0.439	0.363	0.394	0.349	0.384	0.433	0.437	0.418	0.388	0.385	0.408	0.398	0.353	0.41	0.407		0.63	0.568	0.705	0.527
SK-MES-1	0.618	0.527	0.686	0.588	0.638	0.931	0.748	0.77	0.632	0.686	0.364	0.293	0.341	0.324	0.337	0.968	0.985	0.9	0.896	0.849
NCI-H1648	0.255	0.262	0.249	0.278	0.251	0.948			0.7	0.919	0.487			0.529	0.424	0.794	0.853	0.829	0.717	0.641
HCC-44	0.556		0.478	0.682	0.479	1.02	0.924	0.975	0.932	1	0.941	0.797	0.907	0.857	0.902	0.628	0.665	0.585	0.649	0.664
H3255	0.674	0.681	0.584	0.545	0.584	0.544	0.61	0.534	0.567	0.553	0.615	0.538	0.713	0.567	0.589	0.576	0.519	0.614	0.583	0.583
COR-L 105	0.462	0.715	0.651	0.626	0.654	0.689	0.519	0.732	0.608	0.731	0.634	0.66	0.744	0.59	0.599	0.686	1.08	1.25	0.983	1.04
RERF-LC-KJ	0.39	0.455	0.634	0.538	0.57	1.03	0.795	0.814	0.881	0.85	0.658	0.631	0.607	0.72	0.674	0.442	0.502	0.482	0.501	0.521
NCI-H647	0.662	0.479	0.618	0.605	0.648	0.657	0.465	0.659	0.505	0.572	0.376	0.346	0.298	0.299	0.26	0.142	0.154	0.149	0.166	0.231
